{"source": "patent US20120213789A1", "about": "“New Molecular Target for Treatment of Cancer” (priority 2001, published 2012)", "key": {"[1]": {"tested_on": "C4-2B Prostate Cell Line", "assay": "Dual label UC28 C/AnnexinV flow cytometry after SPB treatment", "format": "cell-based, human", "conditions": "for Total AnnexV / Total UC28C: 72 hours, UC28-GAR-CY5/AnnexV-FITC", "procedure": "(§1) Cells were grown to 70-80% confluence at 37° C. and 5% CO2 in T-75 tissue culture plastic flasks. SPB stock solution was added to final concentrations of 0.5, 5.0, 10.0, and 25.0 mM in appropriate fresh media to the cell cultures. Cells were incubated at 37° C. and 5% CO2 for 72 hours. Attached cells were then harvested using a solution of 0.05% trypsin and 0.53 mM EDTA (Invitrogen Corp.). Attached cells were then pooled with any the detached cells and washed with PBS pH 7.2. Cell numbers and percent viability were determined using Trypan blue dye exclusion and a hemacytometer. At the time of their use in an experiment the viability was usually about 85% for untreated cells and a range of about 15-70% for treated cells, with the lower viabilities found at higher SPB concentrations (Thompson C, 1995; Cory et al., 1998; van Engeland et al., 1996).\nVO1 Apoptosis Detection Kit contains: (1) Fluorocein-isothiocyante (FITC) conjugated AnnexinV [AnnexinV01] 1 ml (2) Propidium Iodide [Annex-Pi] 2.0 ml (3) 4× Binding Buffer [Annex-B] 20.0 ml. Vendor is CalTag Laboratories, Inc., 1849 Bayshore Boulevard #200 Burlingame, Calif. 94010.\n(§2) UC28(C) is 2.14 mg/ml rabbit polyclonal aliquot directed against the inventors' UC28 patented biomarker developed by UCor R&D gene discovery program. The Antibody was produced against a twenty amino acid (AA) synthetic peptide from the predicted AA sequence (AA 21-37) UCor, Inc. 840 Research Parkway Oklahoma City, Okla. 73104.\n(§3) Goat Anti-Rabbit CY5 polyclonal Fluorchrome was used as the secondary conjugate for UC28 C rabbit polyclonal antibody and a background control for UC28 C polyclonal. Vendor is Jackson ImmunoResearch Laboratories, Inc. 872 West Baltimore Pike, P.O. Box 9 West Grove, Pa. 19390.\nMsIgG-FITC mouse conjugated-FITC was used for background control for AnnexinV01. Vendor is Becicman Coulter, Inc. Diagnostic Division, 11800 SW 147th Ave. M/S 42-003, P.O. Box 169015, Miami, Floridia 33116-9015.\nA Coulter Elite engineered with a triple laser system was used to analyze all samples. Coulter control beads were used to align lasers for the dual label testing of cell samples. Laser alignment was required for both the Argon (488 nm line) laser and HeNe (633 nm line) laser. These alignments were performed prior to all measurements with the Argon laser (488 nm line) using fluorophores for FITC, RPE, PI and the HeNe laser (633 nm line) for the Cy5 fluorophores being used for the experiments described below. The histographs, voltage settings, gates, color compensation, and pressures were established prior to all sample processing. […]\nUC28 and Annexin V were co-labeled in the three cell lines to assess the induction of UC28 by SPB and its correlation to the induction of apoptosis. […] It may be noted that in previously published experiments, AnnexinV and PI were run in combination with several prostate cancer cell lines, one of which was LNCaP, but not with C4-2B or MLC-SV40. It was determined that they produced similar dose-response kinetics when exposed to 0.5-25 mM of SPB for 72 hours (Ng et al., 1989). That is, as the dose of SPB increased, so did the membrane perturbation events measured by these two methods."}, "[2]": {"tested_on": "C4-2B Metastatic Prostate Cell Line", "assay": "UROC28/Fas label flow cytometry after SPB treatment", "format": "cell-based, human", "conditions": "for Total Fas / Total UC2BC: section UROC28/Fas", "procedure": "as §1, §2, §3\nCD45 (FAS) IgG1 kappa—(R-phycoerythrin (RPE) is purified monoclonal antibody conjugated with R-phycoerythrin (RPE) that is specific for the FAS protein. Vendor is Dalco Corporation 6392 Via Real, Carpinteria, Calif. 93013 USA MsIgG1 IgG1 kappa R-phycoerythrin (RPE) conjugated goat anti-mouse immunoglobulins is used for (FAS) antibody negative control. Vendor is Dako Corporation 6392 Via Real, Carpinteria, Calif. 93013 USA.\nA Coulter Elite engineered with a triple laser system was used to analyze all samples. Coulter control beads were used to align lasers for the dual label testing of cell samples. Laser alignment was required for both the Argon (488 nm line) laser and HeNe (633 nm line) laser. These alignments were performed prior to all measurements with the Argon laser (488 nm line) using fluorophores for FITC, RPE, PI and the HeNe laser (633 nm line) for the Cy5 fluorophores being used for the experiments described below. The histographs, voltage settings, gates, color compensation, and pressures were established prior to all sample processing.\n(a) Tissue culture cells (MLC-SV40, LNCaP and C 4-2B) were aliquoted at concentration of 1×10^6 per teach 12×75 mm polystyrene tube. […]"}}}
{"smiles": "O=C([O-])CCCc1ccccc1.[Na+]", "note": "[SPB, 4-Phenylbutyric Acid, Sodium Salt]", "values": [{"measurement": "Total AnnexV", "setting": "[1]; 0.5 mM SPB", "result": 41.1, "unit": "%"}, {"measurement": "Total UC28C", "setting": "[1]; 0.5 mM SPB", "result": 29.8, "unit": "%"}, {"measurement": "Total AnnexV", "setting": "[1]; 5.0 mM SPB", "result": 94.0, "unit": "%"}, {"measurement": "Total UC28C", "setting": "[1]; 5.0 mM SPB", "result": 81.8, "unit": "%"}, {"measurement": "Total AnnexV", "setting": "[1]; 10 mM SPB", "result": 80.0, "unit": "%"}, {"measurement": "Total UC28C", "setting": "[1]; 10 mM SPB", "result": 88.0, "unit": "%"}, {"measurement": "Total AnnexV", "setting": "[1]; 25 mM SPB", "result": 82.3, "unit": "%"}, {"measurement": "Total UC28C", "setting": "[1]; 25 mM SPB", "result": 96.5, "unit": "%"}, {"measurement": "UC28 up regulation", "setting": "[1]; SPB, summary of Table 5", "result": "up regulated"}, {"measurement": "induction of apoptosis", "setting": "[1]; SPB, summary of Table 5", "result": "induced"}, {"measurement": "Total Fas", "setting": "[2]; 5.0 mM SPB", "result": 3.6, "unit": "%"}, {"measurement": "Total UC2BC", "setting": "[2]; 5.0 mM SPB", "result": 96.4, "unit": "%"}, {"measurement": "Total Fas", "setting": "[2]; 10 mM SPB", "result": 6.1, "unit": "%"}, {"measurement": "Total UC2BC", "setting": "[2]; 10 mM SPB", "result": 94.0, "unit": "%"}, {"measurement": "Fas protein expression", "setting": "[2]; SPB, summary of Table 7", "result": "markedly depressed"}]}
